Results published in ChEMBL document CHEMBL1201862, “PubChem BioAssay data set” (2004).
Blank lines part the entries; values can stand above or below the molecule they belong to. The source made the active and inactive calls.

Experiments:
[1] = molecular target: Beta-2 adrenergic receptor (Homo sapiens, UniProt P07550); experiment: beta2AR agonists driving receptor internalization, dose response, cell-based, FAP fluorogen, flow cytometry, cherry pick 1 (AID 588763); type: functional
[2] = molecular target: Cytochrome P450 2C19 (Homo sapiens, UniProt P33261); experiment: Cytochrome panel assay with activity outcomes. Panel member name: p450-cyp2c19 Compounds with AC50 equal or less than 10 uM are considered active; type: functional; settings: read-out: AC50
[3] = molecular target: Cytochrome P450 3A4 (Homo sapiens, UniProt P08684);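 also: CYP3A4 tested as one member of a cytochrome P450 panel screen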
[4] = molecular target: Cytochrome P450 2D6 (Homo sapiens, UniProt P10635);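 also: CYP2D6 member of a cytochrome P450 panel assay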
[5] = molecular target: Ephrin type-A receptor 4 (Mus musculus, UniProt Q03137); experiment: inhibitors of EphA4 binding to KYL peptide, primary screen, biochemical, colorimetric, mouse EphA4 (AID 689); type: functional
[6] = molecular target: Peroxisome proliferator-activated receptor gamma/Nuclear receptor coactivator 1 (Homo sapiens, UniProt P37231); experiment: (§1) TR-FRET dose response biochemical High Throughput Screening assay for agonists of the steroid receptor coactivator 1 (SRC-1) recruitment by the peroxisome proliferator-activated receptor gamma (PPAR gamma): non-selective agonists. [Related pubchem assays (depositor defined):AID1300, AID1808, AID504735, AID631]; type: protein assay
[7] = molecular target: Peroxisome proliferator-activated receptor gamma/Nuclear receptor coactivator 3 (Homo sapiens, UniProt P37231); experiment: as §1, with “3 (SRC-3)” for “1 (SRC-1)”, “assays: 1301 (Confirmation screen.), 1048 (Primary screen.)]” for “assays (depositor defined):AID1300, AID1808, AID504735, AID631]”; type: functional
[8] = molecular target: Peroxisome proliferator-activated receptor gamma/Nuclear receptor coactivator 2 (Homo sapiens, UniProt P37231); experiment: TR-FRET dose response biochemical High Throughput Screening assay for agonists of the steroid receptor coactivator 2 (SRC-2) recruitment by the peroxisome proliferator-activated receptor gamma (PPAR gamma): non-selective agonists. [Related pubchem assays: 1297, 1032 ]; type: functional
[9] = molecular target: T1, Heat shock factor protein 1 (Mus musculus, UniProt P38532); experiment: HSF1 potentiators in luciferase reporter cells, confirmation, cell-based, NIH3T3, luminescence, dose retest (AID 435004); type: functional;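 also: stress induced by proteasome inhibitor MG132 added 30 min after compound; luciferase reporter driven by HSF1 response element in NIH3T3 cells; actives raise luminescence as potentiators of the MG132 stress response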
T1 sequence (P38532 whole entry): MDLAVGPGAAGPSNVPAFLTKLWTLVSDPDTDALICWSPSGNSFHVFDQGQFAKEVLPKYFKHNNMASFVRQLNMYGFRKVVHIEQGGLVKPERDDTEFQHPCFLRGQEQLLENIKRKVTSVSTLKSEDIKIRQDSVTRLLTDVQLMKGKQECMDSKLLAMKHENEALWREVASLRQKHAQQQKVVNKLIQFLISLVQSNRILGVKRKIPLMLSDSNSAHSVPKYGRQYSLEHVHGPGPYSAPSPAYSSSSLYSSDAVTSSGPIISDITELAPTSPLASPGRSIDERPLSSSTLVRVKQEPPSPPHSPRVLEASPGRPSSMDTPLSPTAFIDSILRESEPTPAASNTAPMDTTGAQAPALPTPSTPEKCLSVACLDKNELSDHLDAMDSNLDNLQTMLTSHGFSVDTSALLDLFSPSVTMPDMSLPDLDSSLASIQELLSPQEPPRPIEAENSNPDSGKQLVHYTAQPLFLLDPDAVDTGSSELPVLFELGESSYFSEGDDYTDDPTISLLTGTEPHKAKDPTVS

[10] = test system: Escherichia coli; experiment: microbe, parasite or virus in culture
[11] = test system: Escherichia coli; experiment: microbe, parasite or virus in culture; remark: listed apart in the source
[12] = molecular target: CAAX prenyl protease 2 (Homo sapiens, UniProt Q9Y256); experiment: human Rce1 protease inhibitors, dose response, biochemical, yeast membranes, quenched-peptide fluorescence, cherry-pick (AID 588849)
[13] = molecular target: Trypsin (Sus scrofa, UniProt P00761); experiment: porcine trypsin inhibitors, dose response, selectivity assay for Rce1 protease inhibitor project, biochemical, quenched peptide fluorescence, cherry-pick (AID 488789)
[14] = test system: HEK293; experiment: cells; settings: Homo sapiens;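 also: cells exposed to compound for 14 hours overnight before viability readout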
[15] = molecular target: Tumor necrosis factor (Homo sapiens, UniProt P01375); experiment: TNFa-triggered NF-kB activation inhibitors, SAR follow-up, cell-based, revised (AID 2337); type: functional
[16] = molecular target: Dual specificity tyrosine-phosphorylation-regulated kinase 1A (Rattus norvegicus, UniProt Q63470); type: biochemical, Homo sapiens
[17] = molecular target: T2, Sentrin-specific protease 6 (Homo sapiens, UniProt Q9GZR1); experiment: SAR Analysis of small molecule inhibitors of Sentrin-specific protease 6 (SENP6) using a Luminescent assay. [Related pubchem assays (depositor defined):AID2582, AID2599]; type: functional
T2 sequence (Q9GZR1 whole entry): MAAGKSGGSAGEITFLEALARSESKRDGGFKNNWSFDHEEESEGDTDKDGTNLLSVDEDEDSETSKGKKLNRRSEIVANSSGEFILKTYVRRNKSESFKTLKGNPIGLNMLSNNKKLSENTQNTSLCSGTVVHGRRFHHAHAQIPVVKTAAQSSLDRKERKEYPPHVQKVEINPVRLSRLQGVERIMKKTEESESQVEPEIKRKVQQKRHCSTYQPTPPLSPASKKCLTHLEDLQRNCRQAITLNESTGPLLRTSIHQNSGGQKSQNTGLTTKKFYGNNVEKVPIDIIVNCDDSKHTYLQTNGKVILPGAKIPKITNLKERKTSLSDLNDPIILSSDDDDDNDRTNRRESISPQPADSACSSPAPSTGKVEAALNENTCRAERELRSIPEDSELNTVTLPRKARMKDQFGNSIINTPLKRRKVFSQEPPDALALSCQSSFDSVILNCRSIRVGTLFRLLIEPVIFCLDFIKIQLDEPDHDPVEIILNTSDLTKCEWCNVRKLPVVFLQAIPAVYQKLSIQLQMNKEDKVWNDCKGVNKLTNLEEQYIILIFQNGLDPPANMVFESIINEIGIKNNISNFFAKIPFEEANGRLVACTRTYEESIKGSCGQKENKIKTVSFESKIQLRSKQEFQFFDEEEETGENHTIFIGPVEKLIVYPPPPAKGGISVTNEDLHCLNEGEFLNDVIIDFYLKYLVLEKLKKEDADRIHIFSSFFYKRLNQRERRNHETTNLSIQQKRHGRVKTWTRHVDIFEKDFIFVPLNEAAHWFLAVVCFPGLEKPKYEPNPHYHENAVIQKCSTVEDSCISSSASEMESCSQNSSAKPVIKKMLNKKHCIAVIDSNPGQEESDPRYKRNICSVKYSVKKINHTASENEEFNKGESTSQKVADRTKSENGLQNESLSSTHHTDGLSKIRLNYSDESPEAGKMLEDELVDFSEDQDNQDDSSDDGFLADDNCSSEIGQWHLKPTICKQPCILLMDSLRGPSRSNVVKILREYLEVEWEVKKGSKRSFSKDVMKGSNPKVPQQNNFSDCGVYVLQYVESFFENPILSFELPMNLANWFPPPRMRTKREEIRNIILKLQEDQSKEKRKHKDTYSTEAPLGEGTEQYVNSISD

[18] = molecular target: T3, Caspase-3 (Homo sapiens, UniProt P42574); experiment: SAR Analysis of small molecule inhibitors of Sentrin-specific proteases (SENPs) using a Caspase-3 Selectivity assay. [Related pubchem assays (depositor defined):AID2540, AID2599, AID434973, AID489001]; type: functional
T3 sequence (P42574 whole entry): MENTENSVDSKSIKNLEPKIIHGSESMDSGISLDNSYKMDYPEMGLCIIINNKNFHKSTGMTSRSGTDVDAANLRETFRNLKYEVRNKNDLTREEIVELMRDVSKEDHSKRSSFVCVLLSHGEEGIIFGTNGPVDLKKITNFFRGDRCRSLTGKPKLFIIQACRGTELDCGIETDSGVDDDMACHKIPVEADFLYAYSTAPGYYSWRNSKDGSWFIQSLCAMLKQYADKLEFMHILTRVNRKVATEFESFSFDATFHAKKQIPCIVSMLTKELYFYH

[19] = molecular target: T4, Sentrin-specific protease 8 (Homo sapiens, UniProt Q96LD8); experiment: SENP8 protease inhibitors, SAR follow-up, biochemical, luminescence (AID 504501); type: functional
T4 sequence (Q96LD8 whole entry): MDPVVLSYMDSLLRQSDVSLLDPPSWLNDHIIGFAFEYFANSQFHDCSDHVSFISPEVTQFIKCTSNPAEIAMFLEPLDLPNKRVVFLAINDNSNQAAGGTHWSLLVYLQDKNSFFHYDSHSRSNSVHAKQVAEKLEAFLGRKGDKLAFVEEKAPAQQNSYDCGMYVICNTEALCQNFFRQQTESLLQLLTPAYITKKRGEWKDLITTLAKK

[20] = molecular target: T5, Sentrin-specific protease 7 (Homo sapiens, UniProt Q9BQF6); experiment: SENP7 protease inhibitors, SAR follow-up, biochemical, luminescence (AID 504497); type: functional
T5 sequence (Q9BQF6 whole entry): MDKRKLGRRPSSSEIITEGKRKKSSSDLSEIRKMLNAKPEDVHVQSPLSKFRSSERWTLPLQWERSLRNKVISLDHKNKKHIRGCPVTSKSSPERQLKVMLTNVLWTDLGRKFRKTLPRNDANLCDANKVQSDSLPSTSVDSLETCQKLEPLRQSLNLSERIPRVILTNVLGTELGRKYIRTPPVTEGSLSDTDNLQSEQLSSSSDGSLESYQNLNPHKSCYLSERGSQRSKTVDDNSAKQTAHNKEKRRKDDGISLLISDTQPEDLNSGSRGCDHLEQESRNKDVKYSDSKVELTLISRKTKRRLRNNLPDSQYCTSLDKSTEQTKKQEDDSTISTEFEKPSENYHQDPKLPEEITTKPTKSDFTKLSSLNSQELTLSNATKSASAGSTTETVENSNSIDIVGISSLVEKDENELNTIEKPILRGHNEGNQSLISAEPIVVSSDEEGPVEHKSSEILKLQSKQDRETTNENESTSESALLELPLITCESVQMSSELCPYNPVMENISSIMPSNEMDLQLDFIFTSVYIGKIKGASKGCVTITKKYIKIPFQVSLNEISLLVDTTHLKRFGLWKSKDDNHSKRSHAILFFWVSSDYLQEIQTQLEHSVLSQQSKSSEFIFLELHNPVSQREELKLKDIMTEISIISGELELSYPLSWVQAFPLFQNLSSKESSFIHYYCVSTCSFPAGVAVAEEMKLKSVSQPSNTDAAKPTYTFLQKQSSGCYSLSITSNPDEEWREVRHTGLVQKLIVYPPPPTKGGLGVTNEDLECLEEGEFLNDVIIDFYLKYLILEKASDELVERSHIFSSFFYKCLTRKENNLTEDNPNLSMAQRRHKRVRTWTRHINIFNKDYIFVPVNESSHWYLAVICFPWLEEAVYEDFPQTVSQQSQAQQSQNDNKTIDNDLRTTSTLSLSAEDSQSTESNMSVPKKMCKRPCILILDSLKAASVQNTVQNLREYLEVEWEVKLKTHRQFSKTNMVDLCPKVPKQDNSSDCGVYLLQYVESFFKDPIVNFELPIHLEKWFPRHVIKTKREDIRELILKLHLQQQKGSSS

[21] = Counterscreen for AddAB inhibitors: absorbance-based bacterial cell-based high throughput dose response assay for inhibitors of bacterial viability. [Related pubchem assays (depositor defined):AID435030, AID449728, AID449731, AID488942, AID488955, AID488956]; type: functional
[22] = molecular target: Exodeoxyribonuclease V (Escherichia coli (strain K12), UniProt P04993+P07648+P08394); experiment: E. coli RecBCD inhibitors, dose response, counter-screen for AddAB inhibitor project, absorbance, V66 E. coli, mutant T4 phage (AID 492957); type: functional, cell-based, Escherichia coli str. K-12 substr. MG1655
Sequence of Exodeoxyribonuclease V (P04993 whole entry): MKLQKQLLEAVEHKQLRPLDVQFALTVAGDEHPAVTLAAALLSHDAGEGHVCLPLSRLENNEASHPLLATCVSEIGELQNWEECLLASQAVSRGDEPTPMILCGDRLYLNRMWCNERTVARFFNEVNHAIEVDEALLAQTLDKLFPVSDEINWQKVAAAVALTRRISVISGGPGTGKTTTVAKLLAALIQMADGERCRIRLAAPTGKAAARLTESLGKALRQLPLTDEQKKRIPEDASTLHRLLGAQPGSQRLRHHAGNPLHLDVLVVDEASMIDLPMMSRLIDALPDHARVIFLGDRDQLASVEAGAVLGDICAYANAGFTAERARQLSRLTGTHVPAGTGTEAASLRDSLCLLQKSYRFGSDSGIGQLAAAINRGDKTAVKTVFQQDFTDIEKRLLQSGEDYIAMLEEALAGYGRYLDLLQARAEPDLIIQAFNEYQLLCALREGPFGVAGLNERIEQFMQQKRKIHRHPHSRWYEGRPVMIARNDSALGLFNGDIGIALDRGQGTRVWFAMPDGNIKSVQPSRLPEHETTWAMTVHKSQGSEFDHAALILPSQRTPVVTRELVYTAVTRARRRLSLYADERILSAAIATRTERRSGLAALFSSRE
Sequence of Exodeoxyribonuclease V (P07648 whole entry): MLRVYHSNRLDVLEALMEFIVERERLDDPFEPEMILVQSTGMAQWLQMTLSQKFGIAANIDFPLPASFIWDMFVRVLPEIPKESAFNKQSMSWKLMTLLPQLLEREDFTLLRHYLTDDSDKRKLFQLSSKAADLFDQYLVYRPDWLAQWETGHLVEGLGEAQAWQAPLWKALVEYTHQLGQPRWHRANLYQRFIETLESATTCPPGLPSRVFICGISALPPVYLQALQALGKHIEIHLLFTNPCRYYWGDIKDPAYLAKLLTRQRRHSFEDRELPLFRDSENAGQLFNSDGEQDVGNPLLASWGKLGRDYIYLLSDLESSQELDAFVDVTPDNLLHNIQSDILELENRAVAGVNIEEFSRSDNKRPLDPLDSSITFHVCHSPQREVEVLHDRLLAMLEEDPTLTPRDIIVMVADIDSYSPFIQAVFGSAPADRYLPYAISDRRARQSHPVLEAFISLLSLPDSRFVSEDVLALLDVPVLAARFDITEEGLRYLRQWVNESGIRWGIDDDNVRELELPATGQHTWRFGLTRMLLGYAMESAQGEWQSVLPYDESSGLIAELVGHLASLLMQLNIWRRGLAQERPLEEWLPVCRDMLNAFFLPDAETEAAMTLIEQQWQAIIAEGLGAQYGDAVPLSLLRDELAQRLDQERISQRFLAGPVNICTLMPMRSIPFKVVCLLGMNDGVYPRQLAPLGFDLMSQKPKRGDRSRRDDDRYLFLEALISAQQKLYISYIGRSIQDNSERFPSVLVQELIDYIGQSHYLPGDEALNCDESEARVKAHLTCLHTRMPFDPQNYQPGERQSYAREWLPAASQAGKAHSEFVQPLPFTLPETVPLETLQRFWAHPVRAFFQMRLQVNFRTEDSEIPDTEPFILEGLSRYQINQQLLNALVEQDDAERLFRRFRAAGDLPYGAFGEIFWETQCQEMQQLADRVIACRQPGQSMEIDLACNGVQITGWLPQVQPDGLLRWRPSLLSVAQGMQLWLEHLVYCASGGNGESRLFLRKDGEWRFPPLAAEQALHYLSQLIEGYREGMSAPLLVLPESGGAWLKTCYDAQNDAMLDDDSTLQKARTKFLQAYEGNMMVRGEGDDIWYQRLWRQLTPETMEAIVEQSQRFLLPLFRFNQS
Sequence of Exodeoxyribonuclease V (P08394 whole entry): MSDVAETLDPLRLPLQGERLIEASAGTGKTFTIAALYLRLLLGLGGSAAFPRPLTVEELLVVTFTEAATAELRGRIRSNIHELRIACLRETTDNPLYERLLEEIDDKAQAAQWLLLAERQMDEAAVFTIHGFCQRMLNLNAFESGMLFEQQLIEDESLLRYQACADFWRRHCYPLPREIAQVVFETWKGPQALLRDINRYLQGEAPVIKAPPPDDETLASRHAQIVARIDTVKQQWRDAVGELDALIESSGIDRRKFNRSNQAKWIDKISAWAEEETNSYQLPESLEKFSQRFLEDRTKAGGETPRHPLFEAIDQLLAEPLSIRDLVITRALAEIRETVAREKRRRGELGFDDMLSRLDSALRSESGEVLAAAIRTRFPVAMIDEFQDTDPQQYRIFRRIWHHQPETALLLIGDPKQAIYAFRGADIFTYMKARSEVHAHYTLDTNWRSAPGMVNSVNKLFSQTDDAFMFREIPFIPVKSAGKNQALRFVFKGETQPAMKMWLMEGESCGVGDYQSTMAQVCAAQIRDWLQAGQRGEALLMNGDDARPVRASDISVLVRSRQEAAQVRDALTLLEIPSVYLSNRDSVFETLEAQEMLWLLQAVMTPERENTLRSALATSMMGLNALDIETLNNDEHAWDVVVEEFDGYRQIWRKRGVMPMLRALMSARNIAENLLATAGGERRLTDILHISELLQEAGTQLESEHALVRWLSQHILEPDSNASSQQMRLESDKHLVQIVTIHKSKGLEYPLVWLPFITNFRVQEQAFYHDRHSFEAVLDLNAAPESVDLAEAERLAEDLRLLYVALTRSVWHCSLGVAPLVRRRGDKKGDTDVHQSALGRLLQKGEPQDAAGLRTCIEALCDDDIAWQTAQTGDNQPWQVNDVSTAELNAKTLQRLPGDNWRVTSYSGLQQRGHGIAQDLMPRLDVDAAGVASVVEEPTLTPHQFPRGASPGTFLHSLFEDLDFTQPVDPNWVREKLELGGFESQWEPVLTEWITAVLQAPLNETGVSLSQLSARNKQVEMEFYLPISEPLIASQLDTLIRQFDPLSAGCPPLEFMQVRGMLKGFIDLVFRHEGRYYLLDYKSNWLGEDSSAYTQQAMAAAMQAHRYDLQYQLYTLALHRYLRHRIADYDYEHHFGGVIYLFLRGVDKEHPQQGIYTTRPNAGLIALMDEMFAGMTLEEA

Sequence of Cytochrome P450 2D6 (P10635 whole entry): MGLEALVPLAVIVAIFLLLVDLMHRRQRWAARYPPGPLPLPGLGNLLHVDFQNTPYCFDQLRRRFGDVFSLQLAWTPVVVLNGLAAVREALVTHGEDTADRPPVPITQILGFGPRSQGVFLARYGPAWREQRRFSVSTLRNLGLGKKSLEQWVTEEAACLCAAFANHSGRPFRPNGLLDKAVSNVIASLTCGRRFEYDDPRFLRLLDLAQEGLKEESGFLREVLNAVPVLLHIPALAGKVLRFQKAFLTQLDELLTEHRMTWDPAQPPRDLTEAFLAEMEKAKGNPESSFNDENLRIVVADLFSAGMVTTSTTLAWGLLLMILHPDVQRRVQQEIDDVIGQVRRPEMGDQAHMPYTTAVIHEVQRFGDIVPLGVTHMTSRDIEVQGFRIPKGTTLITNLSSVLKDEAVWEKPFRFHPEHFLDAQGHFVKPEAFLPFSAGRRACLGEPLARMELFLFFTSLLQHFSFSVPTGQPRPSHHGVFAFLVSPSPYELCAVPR
Sequence of Cytochrome P450 2C19 (P33261 whole entry): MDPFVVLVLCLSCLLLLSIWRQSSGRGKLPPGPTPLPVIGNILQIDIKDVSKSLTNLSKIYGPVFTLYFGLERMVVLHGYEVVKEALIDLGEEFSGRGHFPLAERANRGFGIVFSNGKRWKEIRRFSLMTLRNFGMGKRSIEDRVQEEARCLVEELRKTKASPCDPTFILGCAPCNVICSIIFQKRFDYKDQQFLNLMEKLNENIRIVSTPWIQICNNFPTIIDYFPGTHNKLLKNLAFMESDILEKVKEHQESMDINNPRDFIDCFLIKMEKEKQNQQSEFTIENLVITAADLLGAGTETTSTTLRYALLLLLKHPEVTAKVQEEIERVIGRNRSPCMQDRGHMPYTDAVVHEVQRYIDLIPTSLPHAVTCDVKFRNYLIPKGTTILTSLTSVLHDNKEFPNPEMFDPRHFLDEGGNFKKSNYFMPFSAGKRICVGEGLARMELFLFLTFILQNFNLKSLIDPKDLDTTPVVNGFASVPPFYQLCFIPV
Sequence of CAAX prenyl protease 2 (Q9Y256 whole entry): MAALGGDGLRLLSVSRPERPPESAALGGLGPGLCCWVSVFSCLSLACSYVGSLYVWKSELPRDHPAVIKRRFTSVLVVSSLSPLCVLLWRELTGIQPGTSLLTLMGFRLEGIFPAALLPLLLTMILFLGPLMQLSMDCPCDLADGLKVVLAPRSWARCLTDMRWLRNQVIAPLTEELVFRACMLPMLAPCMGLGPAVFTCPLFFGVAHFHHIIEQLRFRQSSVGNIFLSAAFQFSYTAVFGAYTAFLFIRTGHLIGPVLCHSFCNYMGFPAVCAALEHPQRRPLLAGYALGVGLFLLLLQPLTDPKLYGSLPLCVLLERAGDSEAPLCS
Sequence of Beta-2 adrenergic receptor (P07550 whole entry): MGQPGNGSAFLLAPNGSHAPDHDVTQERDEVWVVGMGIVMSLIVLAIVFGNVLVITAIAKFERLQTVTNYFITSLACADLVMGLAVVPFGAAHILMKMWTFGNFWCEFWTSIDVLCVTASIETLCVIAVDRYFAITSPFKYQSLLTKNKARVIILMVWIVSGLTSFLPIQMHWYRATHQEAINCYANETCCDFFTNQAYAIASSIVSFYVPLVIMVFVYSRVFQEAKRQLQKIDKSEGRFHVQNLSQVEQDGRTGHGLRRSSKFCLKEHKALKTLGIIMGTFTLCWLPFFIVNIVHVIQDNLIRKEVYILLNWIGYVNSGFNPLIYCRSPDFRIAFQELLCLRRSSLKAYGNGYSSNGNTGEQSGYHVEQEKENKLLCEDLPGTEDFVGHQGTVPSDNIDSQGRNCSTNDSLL
Sequence of Tumor necrosis factor (P01375 whole entry): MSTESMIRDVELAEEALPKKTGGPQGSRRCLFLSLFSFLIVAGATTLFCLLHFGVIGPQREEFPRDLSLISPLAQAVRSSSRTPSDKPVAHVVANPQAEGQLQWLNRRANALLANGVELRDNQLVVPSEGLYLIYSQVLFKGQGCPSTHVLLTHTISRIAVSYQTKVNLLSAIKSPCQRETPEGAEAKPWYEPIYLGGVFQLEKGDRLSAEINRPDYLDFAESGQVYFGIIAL

EC50 [1]: 2.2 µM (active)
Structure (SMILES): NC(=O)CC(NC(=O)Cc1ccc(Cl)cc1)c1ccc(NCCCN2CCCC2=O)c([N+](=O)[O-])c1 (centres undefined)

AC50 [12]: 1.15 µM (active)
AC50 [13]: 5.18 µM (active)
Structure (SMILES): COC(=O)c1c(-c2ccc(OC)cc2)oc2ccc(-c3ccc(OC)nc3)cc12

AC50 [4]: inconclusive
Structure (SMILES): Cc1ccc(SCc2noc(C(=O)NCC3CCCO3)c2C(=O)O)cc1C (centres undefined)

IC50 [17]: > 99 µM (inactive)
IC50 [18]: > 99 µM (inactive)
IC50 [20]: > 99 µM (inactive)
Structure (SMILES): O=[N+]([O-])c1cc(/C=N/Nc2cc(N3CCOCC3)nc(N3CCOCC3)n2)cc2c1OCO2
IC50 [19]: > 99 µM (inactive)

IC50 [17]: 1.22 µM (active)
IC50 [18]: 1.98 µM (active)
IC50 [20]: 1.53 µM (active)
Structure (SMILES): CC(C)OC(=O)c1c(-c2ccc(Br)cc2)csc1NC(=O)C1CCC1
IC50 [19]: 1.58 µM (active)

The remaining lines, values behind:

Structure (SMILES): COc1cc(NC(=O)c2ccc(COCC(F)(F)F)cc2)cc(OC)c1OC
AC50 [2]: 28.2 µM (inconclusive)
AC50 [3]: 22.4 µM (inconclusive)
AC50 [4]: inconclusive
IC50 [5]: > 100 µM (not active)

Structure (SMILES): CCN(CC)CCCNC(=O)CSc1c2c(nc3cc(Cl)ccc13)CCCC2
EC50 [6]: > 79.4 µM (inactive)
EC50 [7]: > 79.4 µM (not active)
EC50 [8]: > 79.4 µM (not active)
EC50 [9]: 17.3 µM (active)

Structure (SMILES): CC1(C)CC(CCNS(=O)(=O)c2ccccc2)(c2ccccc2)CCO1 (centres undefined)
AC50 [10]: 251 µM (active)
AC50 [11]: 52.9 µM (active)

Structure (SMILES): C=CCN1C=C2C(=O)C(C)(OC(=O)c3ccc(OC)cc3)C(=O)C(c3ccco3)=C2C=C1CCCC (centres undefined)
AC50 [11]: 22.3 µM (active)

Structure (SMILES): Cc1c(Nc2ncnc3c2cnn3-c2ccccc2)c(=O)n(-c2ccccc2)n1C
AC50 [10]: 51.5 µM (active)

Structure (SMILES): O=C(Nc1ccc(F)cc1)c1ccc(CN2CCCCC2)cc1
IC50 [14]: > 20 µM (inactive)
IC50 [15]: > 20 µM (inactive)

Structure (SMILES): O=C1NC(=S)SC1=Cc1ccc(F)cc1
AC50 [16]: 0.622 µM (active)

Structure (SMILES): CCn1cc(C(=O)O)c(=O)c2cnc(N3CCN(C(=S)Nc4ccccc4C(F)(F)F)CC3)nc21
IC50 [21]: 3.33 µM (active)
IC50 [22]: > 39.5 µM (inactive)
